From PubChem BioAssay (NCI) come the findings set out here.

Test systems include CAKI-1 renal; HCC-2998 colon; HCT-116 colon; M14 melanoma; MALME-3M melanoma; MCF7 breast; MDA-MB-231 breast; MDA-N; MOLT-4 leukemia; NCI-H23 lung; NCI-H460 lung; NCI-H522 lung; OVCAR-3 ovarian; OVCAR-5 ovarian; PC-3 prostate; SF-539 CNS; SR leukemia; T-47D breast; UACC-62 melanoma; SNB-19 CNS.
Assay in all cases: inhibition of tumour cell growth, NCI panel, 48 h

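Protocol summary: plate cells (96-well), add compound at 5 concentrations, incubate 48 h, interpolate endpoints linearly. TGI: concentration producing complete growth inhibition.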

As for `O=C(CCCN1CCC2(CC1)NC(=O)c1ccccc1O2)c1ccc(F)cc1`, the TGI in the experiment with CAKI-1 renal, in the experiment on HCC-2998 colon, with HCT-116 colon, in the experiment on M14 melanoma, in the experiment with MALME-3M melanoma and in the experiment with MCF7 breast was over 100 µM throughout. Moreover, the TGI in the experiment with MDA-MB-231 breast, with MDA-N, in the experiment on MOLT-4 leukemia, with NCI-H23 lung, in the experiment on NCI-H460 lung and in the experiment with NCI-H522 lung was over 100 µM in each case. Further, the TGI in the experiment on OVCAR-3 ovarian, in the experiment with OVCAR-5 ovarian, in the experiment with PC-3 prostate, with SF-539 CNS, in the experiment on SR leukemia and with T-47D breast was over 100 µM throughout. In addition, in the experiment with UACC-62 melanoma, the TGI was over 100 µM.

Consider `CC(=O)Nc1ccc(CNc2cc(=O)n(C)c(=O)[nH]2)cc1`, for which the TGI in the experiment on CAKI-1 renal, in the experiment on HCC-2998 colon, with HCT-116 colon, in the experiment with M14 melanoma, in the experiment with MALME-3M melanoma and with MCF7 breast was over 100 µM throughout. The TGI in the experiment on MDA-MB-231 breast, in the experiment on MDA-N, with MOLT-4 leukemia, in the experiment with NCI-H23 lung, in the experiment on NCI-H460 lung and in the experiment with NCI-H522 lung was over 100 µM throughout. Further, the TGI in the experiment on OVCAR-3 ovarian, with OVCAR-5 ovarian, in the experiment on PC-3 prostate, in the experiment on SF-539 CNS, with SNB-19 CNS and in the experiment with SR leukemia was over 100 µM throughout. Moreover, the TGI with T-47D breast and in the experiment with UACC-62 melanoma was over 100 µM in each case.

In the case of `Cc1nn(C(=O)c2ccc(Cl)cc2)c2c1C(c1cccc([N+](=O)[O-])c1)SC(N)=N2` (stereo not drawn), the TGI in the experiment on CAKI-1 renal, with HCC-2998 colon, in the experiment with HCT-116 colon, in the experiment on M14 melanoma, in the experiment on MALME-3M melanoma and with MCF7 breast was over 10 µM throughout. Also, the TGI in the experiment on MDA-MB-231 breast, with MDA-N, in the experiment on MOLT-4 leukemia, in the experiment with NCI-H23 lung, in the experiment on NCI-H460 lung and with NCI-H522 lung was over 10 µM each time. Also, the TGI with OVCAR-3 ovarian, in the experiment with OVCAR-5 ovarian, in the experiment with PC-3 prostate, in the experiment with SF-539 CNS, with SNB-19 CNS and with SR leukemia was over 10 µM in each case. The TGI in the experiment with T-47D breast and in the experiment on UACC-62 melanoma was over 10 µM in each case.

In the case of `N/C(=N\N=C\c1c[nH]c2cc(C(F)(F)F)ccc2c1=O)NO`, the TGI in the experiment with CAKI-1 renal, with HCC-2998 colon, with HCT-116 colon, in the experiment with M14 melanoma, in the experiment on MALME-3M melanoma and in the experiment on MCF7 breast was over 10 µM each time. The TGI in the experiment with MDA-MB-231 breast, in the experiment with MDA-N, with MOLT-4 leukemia, in the experiment on NCI-H23 lung, in the experiment on NCI-H460 lung and in the experiment on NCI-H522 lung was over 10 µM each time. Moreover, the TGI in the experiment with OVCAR-3 ovarian, with OVCAR-5 ovarian, with PC-3 prostate, in the experiment with SF-539 CNS, in the experiment with SNB-19 CNS and with SR leukemia was over 10 µM in each case. Besides, the TGI in the experiment with T-47D breast and in the experiment on UACC-62 melanoma was over 10 µM throughout.

With `CCOP(=O)(OCC)C(N)Cc1ccc(OC)c(OC)c1` (stereo not drawn), the TGI in the experiment on CAKI-1 renal, with HCC-2998 colon, in the experiment on HCT-116 colon, with M14 melanoma, in the experiment on MALME-3M melanoma and with MCF7 breast was over 100 µM each time. For the same compound, the TGI in the experiment on MDA-MB-231 breast, with MDA-N, in the experiment with MOLT-4 leukemia, in the experiment with NCI-H23 lung, in the experiment on NCI-H460 lung and in the experiment on NCI-H522 lung was over 100 µM throughout. In addition, the TGI in the experiment with OVCAR-3 ovarian, in the experiment on OVCAR-5 ovarian, in the experiment with PC-3 prostate, in the experiment on SF-539 CNS, with SNB-19 CNS and in the experiment on SR leukemia was over 100 µM each time. Also, the TGI in the experiment with T-47D breast and in the experiment with UACC-62 melanoma was over 100 µM throughout.

Take `COc1ccc(N=C2C(=Nc3ccc(OC)cc3)N(S(=O)(=O)c3ccccc3)C(=S)N2c2ccccc2)cc1`: the TGI in the experiment on CAKI-1 renal, in the experiment with HCC-2998 colon, with M14 melanoma, with MALME-3M melanoma, in the experiment with MCF7 breast and with MDA-MB-231 breast was over 100 µM throughout. The TGI with MDA-N, with MOLT-4 leukemia, in the experiment with NCI-H23 lung, in the experiment on NCI-H460 lung, in the experiment on NCI-H522 lung and in the experiment on OVCAR-3 ovarian was over 100 µM in each case. In addition, the TGI in the experiment with OVCAR-5 ovarian, with PC-3 prostate, in the experiment on SF-539 CNS, with SNB-19 CNS, in the experiment with SR leukemia and in the experiment on T-47D breast was over 100 µM throughout. The compound also yielded a TGI in the experiment on UACC-62 melanoma of over 100 µM.

With `N=c1nc2n(cc1F)[C@@H]1O[C@H](CO)[C@@H](O)[C@@H]1O2`, the TGI is over 100 µM in the experiment with CAKI-1 renal; over 100 µM in the experiment with HCC-2998 colon; over 100 µM in the experiment with HCT-116 colon; 7.81 µM in the experiment with M14 melanoma; over 34 µM in the experiment with MALME-3M melanoma; over 100 µM in the experiment with MCF7 breast. In addition, the TGI with MDA-MB-231 breast was over 100 µM; in the experiment on MDA-N, over 100 µM; with MOLT-4 leukemia, 18.9 µM; with NCI-H23 lung, over 55.8 µM; in the experiment with NCI-H460 lung, over 36 µM; in the experiment with NCI-H522 lung, over 74.7 µM. The TGI with OVCAR-3 ovarian is over 100 µM; with OVCAR-5 ovarian it was over 100 µM; in the experiment with PC-3 prostate, over 100 µM; with SF-539 CNS, over 77.2 µM; with SNB-19 CNS, over 100 µM; with SR leukemia, over 73.7 µM. The figures for the TGI in the experiment with T-47D breast and in the experiment on UACC-62 melanoma were 65.2 µM and over 100 µM, respectively.
